Experimental findings from the OPERA property sets (Mansouri et al. 2018) are described below.

Details in the first data set: not given
In the case of `O=C(Nc1ccc(Cl)cc1)c1cc(Br)ccc1O`, the melting point came to 240 °C. `CCOC(=O)CNc1ccccc1` showed a boiling point of 274 °C and a melting point of 58 °C. In the case of `O=C(O)c1cc(Cl)ccc1Cl`, the boiling point is 301 °C, the melting point is 154 °C and the ready biodegradability result was “not readily biodegradable”.

In turn, `CCCCCOC(=O)CCCC` gave a boiling point of 204 °C and a melting point of -78.8 °C. As for `CC(=O)C(C)O` (stereo unspecified), the boiling point came to 143 °C and the melting point came out at 15 °C. `CCCCCCCCCCO` returned a boiling point of 231 °C, a log10 Henry constant (atm·m³/mol) of -4.49, a log10 Koc (L/kg) of 2.59 and a log10 vapour pressure (mmHg) of -2.07. For the same molecule, the melting point turned out to be 6.9 °C and the ready biodegradability entry is on record as “readily biodegradable”. Take `CCC(C)c1ccc(O)cc1` (stereo unspecified): the boiling point amounted to 241 °C, the log10 vapour pressure (mmHg) was -1.43, the melting point is 61.5 °C and the ready biodegradability result is on record as “not readily biodegradable”. `[N-]=[N+]=Nc1ccccc1` registered a melting point of -27.5 °C. In turn, `O=[N+]([O-])c1ccc(Br)cc1` registered a boiling point of 256 °C, a log10 Koc (L/kg) of 2.42 and a melting point of 127 °C.

Turning to `O=C(O)C=Cc1ccc(O)cc1`, the ready biodegradability result was “readily biodegradable”. For the molecule `O=c1cc[nH]c2ccccc12`, the melting point is 201 °C. Molecule `CC/C=C/C(C)C` showed a boiling point of 85.9 °C and a melting point of -142 °C. On to `CC(=O)CC(=O)Nc1ccccc1`, for which the log10 vapour pressure (mmHg) was -4.28, the melting point is 86 °C and the ready biodegradability result is reported as “readily biodegradable”. For `COC(=O)CCC(C)=O`, the boiling point was found to be 196 °C. For the molecule `COc1cc(C(C)=O)ccc1O`, the boiling point stood at 297 °C and the melting point was 115 °C. `O=C1CCCCCCCCCC1`: the log10 vapour pressure (mmHg) is -1.31. Regarding `CC(=O)Oc1cc(C(F)(F)F)ccc1C(=O)O`, the melting point stood at 121 °C. With `CCOC(=O)c1ccco1`, the boiling point was determined as 197 °C, the log10 vapour pressure (mmHg) is -0.432 and the melting point came to 34.5 °C.

In turn, `CC(=O)O[Si](C)(OC(C)=O)OC(C)=O` gave a melting point of 40.5 °C. Take `CC(Cl)c1ccccc1` (stereo unspecified): the log10 vapour pressure (mmHg) was -0.187. For `Nc1ccc([N+](=O)[O-])cc1[N+](=O)[O-]`, the boiling point turned out to be 334 °C, the melting point worked out at 180 °C and the ready biodegradability result was “not readily biodegradable”.

`CC(=O)OCC(=O)[C@@]1(O)CC[C@H]2[C@@H]3C[C@H](C)C4=CC(=O)C=C[C@]4(C)[C@H]3[C@@H](O)C[C@@]21C` gave a melting point of 206 °C. In the case of `C=CC(=O)O[C@@H]1C[C@H]2CC[C@]1(C)C2(C)C`, the melting point amounted to 97 °C. Take `CC(CC(C)(C)C)CC(C)(C)CC(C)(C)C` (stereo unspecified): the ready biodegradability entry is “not readily biodegradable”. For the molecule `C#CC(C)(C)C`, the boiling point worked out at 37.7 °C and the melting point is -78.2 °C. On to `Cc1cc(N)c(S(=O)(=O)O)cc1Cl`, for which the ready biodegradability result was “not readily biodegradable”. In turn, `O=Cc1cc(O)ccc1[N+](=O)[O-]` came in with a melting point of 167 °C. Take `Oc1ccc(Cl)c2c1CCC2`: the melting point came out at 92 °C.

For the molecule `O=S(=O)(c1ccc(O)cc1)c1ccc(O)cc1`, the melting point turned out to be 240 °C and the ready biodegradability result was “not readily biodegradable”. On to `Cc1ccccc1Oc1cccnn1`, for which the melting point was determined as 78 °C.

Regarding `CN(C)CCCO`, the boiling point stood at 164 °C. `CCCC(C)C(=O)Nc1ccc(C)c(Cl)c1` (stereo unspecified) gave a log10 Koc (L/kg) of 2.76 and a melting point of 85 °C. Regarding `Cc1ccc(S(=O)(=O)F)cc1`, the melting point was determined as 41.5 °C.

For the molecule `CCCCCCCS`, the boiling point turned out to be 177 °C, the log10 vapour pressure (mmHg) came out at 0.116 and the melting point is -43 °C. The molecule `OC1(c2ccccc2)CCCCC1` displayed a melting point of 63.5 °C.

In the case of `Cc1cc(O)cc(O)c1`, the boiling point was 290 °C, the melting point is 108 °C and the ready biodegradability result was “not readily biodegradable”.

Molecule `O=C(NC(=O)c1ccccc1Cl)Nc1ccc(OC(F)(F)F)cc1` had a log10 vapour pressure (mmHg) of -9.52 and a melting point of 195 °C. For `CCC(C)(CC)CC`, the boiling point turned out to be 118 °C, the log10 vapour pressure (mmHg) was 1.36 and the melting point is -90.9 °C.

For the molecule `COC(=O)c1cccc(C)c1`, the boiling point came to 221 °C. As to `O=C(OC(=O)C(Cl)(Cl)Cl)C(Cl)(Cl)Cl`, the log10 vapour pressure (mmHg) is -0.908. `CCCCC(C)CCCC` gave a boiling point of 165 °C and a melting point of -87.7 °C. In the case of `Cc1c(F)c(F)c(C)c(F)c1F`, the boiling point was found to be 144 °C and the melting point was 36 °C.

Consider `CS(=O)(=O)Cl`, for which the boiling point was found to be 162 °C. `Clc1cc2c(Cl)ccc(Cl)c2c(Cl)c1Cl` registered a log10 Koa of 9.1 and a log10 vapour pressure (mmHg) of -6. For the molecule `COC(=O)Cn1ccnc1[N+](=O)[O-]`, the melting point came to 96 °C.

Still in this data set, the particulars now being: fish.
The molecule `Oc1ccc(Cl)cc1Cc1cc(Cl)ccc1O` came in with a log10 BCF of 2.28 and a log10 biotransformation half-life (days) of -0.51.

With `CCOc1ccc(NC(C)=O)cc1`, the log10 BCF came to 1.48 and the log10 biotransformation half-life (days) was -0.55. Regarding `COc1cccc2ccccc12`, the log10 BCF was 2.21 and the log10 biotransformation half-life (days) amounted to 0.39.

Regarding `CCC(C)c1ccc(O)cc1` (stereo unspecified), the log10 BCF is 1.31 and the log10 biotransformation half-life (days) was -0.84. The molecule `CC(CC(C)(C)C)CC(C)(C)CC(C)(C)C` (stereo unspecified) had a log10 BCF of 3.82 and a log10 biotransformation half-life (days) of 1.81.

For orientation: melting point means the temperature of the solid-liquid transition. What is called boiling point is the temperature of boiling at a given pressure.
